Log RAI data for 29 compounds are collected here from ChEMBL document CHEMBL1123774, “Peptide quantitative structure-activity relationships, a multivariate approach” (J Med Chem, 1987).

Peptide text beside a SMILES is read from it.

The nature of this experiment: Bradykinin potentiating activity was determined as the activity index by PLS model.
In the case of `CC(C)[C@H](N)C(=O)N[C@@H](CCCCN)C(=O)N[C@@H](Cc1c[nH]c2ccccc12)C(=O)N[C@@H](C)C(=O)N[C@@H](C)C(=O)O` (H-VKWAA-OH), the Log RAI came to 1.71.

As for `CC(C)[C@H](N)C(=O)N[C@@H](CCC(=O)O)C(=O)N[C@@H](Cc1c[nH]c2ccccc12)C(=O)N[C@@H](C)C(=O)N[C@@H](CCCCN)C(=O)O` (H-VEWAK-OH), the Log RAI amounted to 2.73.

On to `C[C@H](N)C(=O)N[C@@H](C)C(=O)N[C@@H](Cc1c[nH]c2ccccc12)C(=O)N[C@@H](C)C(=O)N[C@@H](C)C(=O)O` (H-AAWAA-OH), for which the Log RAI was 0.75.

Consider `CC(C)[C@H](N)C(=O)N[C@@H](C)C(=O)N[C@@H](C)C(=O)N[C@@H](C)C(=O)N[C@@H](CCCCN)C(=O)O` (H-VAAAK-OH), for which the Log RAI is -0.1.

With `CC(C)[C@H](N)C(=O)N[C@@H](CCC(=O)O)C(=O)N[C@@H](Cc1ccccc1)C(=O)N[C@@H](C)C(=O)N[C@@H](CCCCN)C(=O)O` (H-VEFAK-OH), the Log RAI was 1.57.

As to `CC(C)[C@H](N)C(=O)N[C@@H](CCC(=O)O)C(=O)N[C@@H](Cc1c[nH]c2ccccc12)C(=O)N[C@H](C(=O)N[C@@H](CCCCN)C(=O)O)C(C)C` (H-VEWVK-OH), the Log RAI stood at 1.71.

As to `CC(C)[C@H](N)C(=O)N[C@@H](CCC(=O)O)C(=O)N[C@@H](C)C(=O)N[C@@H](CO)C(=O)N[C@@H](CCCCN)C(=O)O` (H-VEASK-OH), the Log RAI was determined as 0.2.

For `C[C@H](NC(=O)[C@H](Cc1c[nH]c2ccccc12)NC(=O)[C@H](CCCCN)NC(=O)[C@@H](N)CCC(=O)O)C(=O)N1CCC[C@H]1C(=O)O` (H-EKWAP-OH), the Log RAI was 1.3.

With `NC(N)=NCCC[C@H](NC(=O)[C@H](Cc1ccccc1)NC(=O)[C@@H]1CCCN1C(=O)[C@H](CO)NC(=O)[C@@H](N)Cc1ccccc1)C(=O)O` (H-FSPFR-OH), the Log RAI turned out to be 0.64.

Take `CC(C)[C@H](N)C(=O)N[C@@H](C)C(=O)N[C@@H](Cc1c[nH]c2ccccc12)C(=O)N[C@@H](C)C(=O)N[C@@H](CCCCN)C(=O)O` (H-VAWAK-OH): the Log RAI turned out to be 1.45.

As for `CC(C)C[C@H](NC(=O)[C@H](CCC(=O)O)NC(=O)[C@@H](N)C(C)C)C(=O)N[C@@H](C)C(=O)N[C@@H](CCCCN)C(=O)O` (H-VELAK-OH), the Log RAI was 0.59.

As to `CC(C)[C@H](N)C(=O)N[C@@H](CCC(=O)O)C(=O)N[C@@H](CO)C(=O)N[C@@H](C)C(=O)N[C@@H](CCCCN)C(=O)O` (H-VESAK-OH), the Log RAI was 0.28.

As to `CC(C)[C@H](N)C(=O)N[C@@H](CCC(=O)O)C(=O)N[C@@H](C)C(=O)N[C@@H](C)C(=O)N[C@@H](CCCCN)C(=O)O` (H-VEAAK-OH), the Log RAI was 0.51.

In the case of `C[C@H](NC(=O)[C@H](C)NC(=O)[C@H](CCC(=O)O)NC(=O)CN)C(=O)N[C@@H](CCCCN)C(=O)O` (H-GEAAK-OH), the Log RAI was -0.52.

With `CC(C)[C@H](N)C(=O)N[C@@H](C)C(=O)N[C@@H](Cc1c[nH]c2ccccc12)C(=O)N[C@@H](C)C(=O)N[C@@H](C)C(=O)O` (H-VAWAA-OH), the Log RAI stood at 1.43.

Take `O=C(CNC(=O)[C@@H]1CCCN1)N[C@@H](Cc1ccccc1)C(=O)N[C@@H](CO)C(=O)N1CCC[C@H]1C(=O)O` (H-PGFSP-OH): the Log RAI was found to be 0.9.

As for `CC(C)[C@H](N)C(=O)N[C@@H](CCCCN)C(=O)N[C@@H](C)C(=O)N[C@@H](C)C(=O)N[C@@H](CCCCN)C(=O)O` (H-VKAAK-OH), the Log RAI was 0.11.

Regarding `C[C@H](N)C(=O)N[C@@H](C)C(=O)N[C@@H](Cc1ccc(O)cc1)C(=O)N[C@@H](C)C(=O)N[C@@H](C)C(=O)O`, the Log RAI turned out to be 0.46.

Consider `CC(C)[C@H](N)C(=O)N[C@@H](CCC(=O)O)C(=O)NCC(=O)NCC(=O)N[C@@H](CCCCN)C(=O)O` (H-VEGGK-OH), for which the Log RAI is -1.

`CC(C)[C@H](N)C(=O)N[C@@H](CCC(=O)O)C(=O)N[C@@H](Cc1c[nH]cn1)C(=O)N[C@@H](C)C(=O)N[C@@H](CCCCN)C(=O)O` (H-VEHAK-OH): the Log RAI was 1.53.

With `CC(C)[C@H](N)C(=O)N[C@@H](CCCCN)C(=O)N[C@@H](Cc1c[nH]c2ccccc12)C(=O)N[C@@H](C)C(=O)N1CCC[C@H]1C(=O)O` (H-VKWAP-OH), the Log RAI worked out at 2.35.

Turning to `CC(C)[C@H](N)C(=O)N[C@@H](CCC(=O)O)C(=O)N[C@@H](C)C(=O)N[C@@H](C)C(=O)N1CCC[C@H]1C(=O)O` (H-VEAAP-OH), the Log RAI came out at 0.18.

As for `C[C@H](N)C(=O)N[C@@H](C)C(=O)N[C@@H](C)C(=O)N[C@@H](C)C(=O)N[C@@H](C)C(=O)O`, the Log RAI was -0.1.

`C[C@H](NC(=O)[C@H](C)NC(=O)[C@H](CCC(=O)O)NC(=O)[C@@H](N)Cc1ccccc1)C(=O)N[C@@H](CCCCN)C(=O)O` (H-FEAAK-OH): the Log RAI came to 0.3.

For the compound `CC(C)[C@H](N)C(=O)N[C@@H](CCC(=O)O)C(=O)N[C@@H](CO)C(=O)N[C@@H](CO)C(=O)N[C@@H](CCCCN)C(=O)O` (H-VESSK-OH), the Log RAI was 0.

`C[C@H](NC(=O)[C@H](Cc1c[nH]c2ccccc12)NC(=O)[C@H](CCCCN)NC(=O)[C@@H](N)CCCN=C(N)N)C(=O)N1CCC[C@H]1C(=O)O` (H-RKWAP-OH): the Log RAI came out at 1.98.

With `CC(C)[C@H](N)C(=O)N[C@@H](C)C(=O)N[C@@H](C)C(=O)N[C@@H](Cc1c[nH]c2ccccc12)C(=O)N[C@@H](CCCCN)C(=O)O` (H-VAAWK-OH), the Log RAI was found to be 0.23.

For `CC(C)[C@H](N)C(=O)N[C@@H](Cc1c[nH]c2ccccc12)C(=O)N[C@@H](C)C(=O)N[C@@H](C)C(=O)N[C@@H](CCCCN)C(=O)O` (H-VWAAK-OH), the Log RAI turned out to be 0.04.

For `CC(C)C[C@H](N)C(=O)N[C@@H](CCC(=O)O)C(=O)N[C@@H](C)C(=O)N[C@@H](C)C(=O)N[C@@H](CCCCN)C(=O)O` (H-LEAAK-OH), the Log RAI is 0.4.
